{"source": "patent US7888385B2", "about": "“Airway alkalinization as therapy for airway diseases” (priority 2002, dated 2011)", "key": {"[1]": {"experiment": "Practical applications: asthma patient cases", "format": "in vivo, human", "source_text": "(§1) Practical Applications of the Present Invention"}, "[2]": {"conditions": "existing formulations; cited from earlier work"}, "[3]": {"test_system": "airway epithelial glutaminase", "experiment": "Ammonium accumulation by small airway epithelial cells (SAEC) in 3 mM glutamine", "format": "cell-based, human", "method": "(SAEC: Clonetics) grown to confluence in six well plates with 3 mM glutamine were incubated with S-Nitrosoglutathione (GSNO; 200 μm) in the presence or absence of cysteinyl glycine (CG; 100 μM). Ammonium accumulation over time was compared with control cells. S-Nitrosoglutathione require conversion to S-Nitrosocysteinyl glycine (CGSNO) (whether through simple transnitrosation reactions in the presence of CG or through cleavage by γ glutamyl transpeptidase) to be fully active at intracellular sites, such as mitochondrial glutaminase, in some system. However, conversion of GSNO to CGSNO dramatically shortens the chemical and biological half-life of the SNO moiety. […] Accumulation of NH4^+ in medium alone was at the threshold of detection."}, "mycobacteria": {"test_system": "mycobacteria", "conditions": "human, in vivo, pH 3", "source_text": "as §1"}, "[4]": {"conditions": "cited from earlier work"}, "glutaminase": {"test_system": "glutaminase", "experiment": "Glutaminase activity in cultured lung epithelial cells", "format": "cell-based", "conditions": "100 u/ml, at 24 and 48 hours, p<0.01, n=3 each", "source_text": "An indirect effect of HRV infection involving inflammatory and/or neuronal mediators is also possible. In particular, IFN γ is a likely candidate to mediate glutaminase inhibition because 1) Th1 cytokines inhibit glutaminase activity in lower airway epithelial cells 2) IFN γ inhibits glutaminase in other cell systems; and 3) IFN γ production following HRV infection in the setting of Th2-lymphocyte associated chronic inflammation may contribute to asthmatic airway narrowing. Applicants have shown that 100 u/ml interferon gamma inhibits glutaminase activity in cultured lung epithelial cells in excess of 65% at 24 and 48 hours (p<0.01, n=3 each). Though circulating T cells could produce IFN γ during rhinovirus infections, it seems more likely that it would be secreted in the airway itself as a result of local recruitment and activation of Th1 and/or CD8 cells.\nIn accordance with one embodiment, a method of treating asthma comprises nebulizing or treating systemically with a compound that facilitates breakdown of S-Nitrosothiols, such as CuCl, Cu/Zn SOD, glutathione peroxidase, glutathione-dependent formaldehyde dehydrogenase or gamma glutamyl transpeptidase. […]"}}, "note": "Where a name gives a salt, the structure may show the parent alone."}
{"compound": "CC(C)(C)NCC(O)c1ccc(O)c(CO)c1", "note": "(centres unmarked) [Albuterol]", "values": [{"measurement": "asthma symptoms", "setting": "[1]; 0.083 mg diluted in normal saline (pH 3.5), child", "value": "symptoms do not improve"}, {"measurement": "asthma symptoms", "setting": "[1]; same dose diluted in 10 mM phosphate buffered saline, pH 8", "value": "symptoms resolve"}, {"measurement": "pH of existing formulation", "setting": "[2]", "value": "3 to 5"}]}
{"compound": "N[C@@H](CS)C(=O)NCC(=O)O", "note": "[CG, cysteinyl glycine]", "values": [{"measurement": "effect on GSNO inhibition of NH4+ accumulation after 48 hours", "setting": "[3]; cysteinyl glycine 100 μM added to GSNO 200 μm, after 48 hours", "value": "eliminated the GSNO effect"}]}
{"compound": "[Cl][Cu]", "note": "[CuCl]", "values": [{"measurement": "asthma symptoms", "setting": "[1]; 10 μM in 10 mM phosphate buffered saline, pH 8, three times/day", "value": "asthma symptoms resolve"}]}
{"compound": "N[C@@H](CCC(=O)N[C@@H](CSN=O)C(=O)NCC(=O)O)C(=O)O", "note": "[GSNO, S-Nitrosoglutathione]", "values": [{"measurement": "NH4+ accumulation at 24 hours", "setting": "[3]; GSNO 200 μm in the presence of cysteinyl glycine 100 μM, 24 hours", "value": "no NH4^+ at all accumulated"}, {"measurement": "NH4+ accumulation over time vs control cells", "setting": "[3]; GSNO 200 μm, SAEC, p<0.01 by ANOVA", "value": "inhibited NH4^+ accumulation at each time point"}]}
{"compound": "CC(C)(C)NC[C@H](O)c1ccc(O)c(CO)c1", "note": "[Levalbuterol HCl]", "values": [{"measurement": "asthma symptoms", "setting": "[1]; levalbuterol and budesonide together, 0.5 mg by nebulizer four times/day", "value": "without relief of their symptoms"}, {"measurement": "pH of existing formulation", "setting": "[2]", "value": "3.3-4.5"}]}
{"compound": "CC(=O)O", "note": "[acetic acid]", "values": [{"measurement": "tuberculosis symptoms", "setting": "mycobacteria", "value": "symptoms resolve"}]}
{"compound": "O=C(O)CN(CCO)CCO", "note": "[bicine, N,N-Bis(2-hydroxyethyl)glycine]", "values": [{"measurement": "pKa", "setting": "[4]", "value": 8.46}]}
{"compound": "OC(Cn1cncn1)(Cn1cncn1)c1ccc(F)cc1F", "note": "[fluconazole]", "values": [{"measurement": "asthma symptoms", "setting": "[1]; 7 day course, 200 mg/day, chronic yeast infection in mouth", "value": "asthma symptoms improve"}]}
{"compound": "NC(=O)CC[C@H](N)C(=O)O", "note": "[glutamine]", "values": [{"measurement": "asthma symptoms", "setting": "[1]; 1 gm by mouth three times a day", "value": "does not develop any asthma symptoms"}, {"measurement": "asthma exacerbation", "setting": "[1]; 1 gm by nebulizer (pH 8) twice a day at onset of upper respiratory symptoms", "value": "does not develop an asthma exacerbation"}]}
{"compound": "NCC(=O)O", "note": "[glycine, aminoacetic acid]", "values": [{"measurement": "asthma symptoms", "setting": "[1]; 1 mM glycine in 10 mM CAPS (pH 7.6) by nebulizer immediately before levalbuterol and budesonide", "value": "becomes asymptomatic"}]}
{"compound": "O=C(O)CNC(CO)(CO)CO", "note": "[tricene, N-[tris(hydroxymethyl)methyl] glycine]", "values": [{"measurement": "pKa", "setting": "[4]", "value": 8.26}]}
{"compound": "interferon gamma: Th1-derived cytokine that inhibits glutaminase", "values": [{"measurement": "inhibition of glutaminase activity", "setting": "glutaminase", "value": "> 65", "unit": "%"}]}
